Tests used:
Format in all cases: in vivo, mouse
HCT116 tumor xenograft = HCT116 tumor xenograft model, tumor response; conditions: i.v.
Description: The cell line HCT-116 has been widely used in the evaluation of mitotic inhibitors such as microtubule disruptors, mitotic kinase inhibitors and KSP inhibitors. […] Experiments were performed using outbred athymic nu/nu mice approximately 6-8 weeks old (Charles River Laboratories, Hollister, Calif.). […] Mice were housed 4-5 animals per cage in clear polycarbonate micro-isolator cages with a 12-hour light, 12-hour dark cycle at temperatures between 70-80 degrees Fahrenheit and 30-70% relative humidity. Food (Purina rodent chow pellets) and water were provided ad libitum. Mice were handled in accordance with Novartis ACUC regulations and guidelines and the ILAR Guide for the Care and Use of Laboratory Animals. Experiments were performed in an AAALAC accredited facility under an ACUC approved protocol.
Compound IIa (free base) and SB-715992 (ispinesib, a KSP inhibitor by Cytokinetics that is in clinical trials; as its free base) were formulated in 20% Captisol® for all the above doses for a dose volume of 8 mL/kg. Doses were adjusted to each animal's body weight.
Human HCT116 colon carcinoma cells were obtained from the National Cancer Institute's DCTD Tumor Repository (catalog #NCI-502568, Rockville, Md.) and tested to be free of Mycoplasma sp. and murine viruses in the IMPACT1 PCR assay panel (RADIL, University of Missouri, Columbia, Mo.). HCT116 cells were grown in RPMI 1640 with 2 mM L-glutamine (Mediatech Inc., catalog #15-040-CV) supplemented with 10% fetal bovine serum (JRH Biosciences, catalog #12003-1000M). These cells were grown as adherent cultures, maintained at 37° C. in a humidified atmosphere containing 5% carbon dioxide. Cells were cultured for fewer than 10 passages prior to use. Cells were harvested at 95% confluency, and centrifuged at ˜800×g for 5 minutes at 4° C. and then resuspended in a cold HBSS (Mediatech Inc., catalog #21-021-CV) at a concentration of 50 million cells/mL for implantation subcutaneously (injection volume of 0.1 mL).
Female nu/nu mice (Charles River, Hollister, Calif.) were injected subcutaneously in the right flank with 5 million HCT-116 tumor cells suspended in Hank's Balanced Salt Solution (HBSS) in a total volume of 0.1 mL/mouse. For the efficacy studies, mice were randomized 10 days post-implant. […] Tumor volume was calculated as (L×W2)/2. […] Percent treatment/control (T/C) values were calculated using the following formula: % T/C=100×ΔT/ΔC
All data were expressed as mean and SEM. Between-groups comparisons for final tumor measurements were performed using the one-way ANOVA pair-wise analysis. Significance was determined using Kruskal-Wallis one-way ANOVA on Ranks and Dunn's method for multiple pair-wise comparisons. Statistical analysis was carried out using SigmaStat (Systat Software Inc., San Jose, Calif.).

HCT15 tumor xenograft = HCT15 tumor xenograft model, tumor response
Description: (§1) Routine animal care and assurance of welfare were as described above.
Human HCT15 colon carcinoma cells were obtained from the National Cancer Institute's DCTD Tumor Repository (catalog #NCI-502711, Rockville, Md.). HCT15 cells were grown in RPMI 1640 with 2 mM L-glutamine (Mediatech Inc., catalog #15-040-CV) supplemented with 10% fetal bovine serum (JRH Biosciences, catalog #12003-1000M). The cells were tested to be free of Mycoplasma sp. and murine viruses in the IMPACT1 PCR assay panel (RADIL, University of Missouri, Columbia, Mo.)
These cells were grown as adherent cultures, maintained at 37° C. in a humidified atmosphere containing 5% carbon dioxide. Cells were cultured for fewer than 10 passages prior to use. Cells were harvested at 95% confluency, and centrifuged at ˜800×g for 5 minutes at 4° C. and then resuspended in a 1:1 ratio of HBSS (Mediatech Inc., catalog #21-021-CV) plus Matrigel™ at a concentration of 50 million cells/mL for implantation subcutaneously (injection volume of 0.2 mL).
(§2) Treatments for the efficacy studies were initiated 10 days following tumor cell implantation when tumors were approximately 300 mm^3. Compound IIa and SB-715992 were administered intravenously (i.v.) via the tail vein in a volume of 8 mL/kg at the doses indicated. Paclitaxel was administered intraperitoneally (i.p.) in a volume of 16 mL/kg at 30 mg/kg.
(§3) Tumor volume was calculated as (L×W2)/2. […] Data was analyzed as described above.

[1] = HCT15 tumor xenograft model, host response
Description: as §1, §2, §3

[2] = Subcutaneous MV4; 11 tumor xenograft model, host response
Description: Subcutaneous tumor efficacy studies were performed using outbred athymic nu/nu mice approximately 6-8 weeks old (Charles River Laboratories, Hollister, Calif.). The efficacy study in the disseminated disease model was performed using immunodeficient NOD-SCID female mice approximately 7-8 weeks old (Jackson Laboratories, Bar Harbor, Me.). […] Routine animal care and assurance of welfare were as described above.
The compound IIa (free base) and SB-715992 (free base) were formulated in 20% Captisol for a dose volume of 8 mL/kg. Doses were adjusted to each animal's body weight.
For the two efficacy evaluations in the subcutaneous tumor model, 10 million cells combined in a 1:1 mixture of HBSS and Matrigel™ were injected subcutaneously in the right flank in a total volume of 0.2 mL/mouse. […] Tumor volume was calculated as (L×W2)/2.

[3] = Subcutaneous KMS-11-luc tumor xenograft model, host response; conditions: 7.5 mg/kg, Q4d × 3, i.v.
Description: Experiments were performed using immunodeficient SCID-Beige female mice approximately 7-8 weeks old (Charles River Laboratories, Wilmington, Mass.). […] Routine animal care and assurance of welfare were as described above.
Compound IIa and SB-715992 (free base) were formulated in 20% Captisol for a dose volume of 8 mL/kg. Doses were adjusted to each animal's body weight.
For the efficacy evaluation in the subcutaneous tumor model, 10 million cells combined in a 1:1 mixture of HBSS and Matrigel™ were injected subcutaneously in the right flank in a total volume of […]. […] Tumor volume was calculated as (L×W2)/2. […] Data analysis was as described above.

[4] = Study 2, 1.8 mg/kg, Q4d × 3, i.v, D10
[5] = Study 2, 3.5 mg/kg, Q4d × 3, i.v, D3
[6] = Study 2, 7.5 mg/kg, Q4d × 3, i.v, D10

## Cc1ccc(C(=O)N(CCCN)[C@@H](c2nc3cc(Cl)ccc3c(=O)n2Cc2ccccc2)C(C)C)cc1 [SB-715992, Ispinesib, reference compound]
HCT116 tumor xenograft; 1.75 mg/kg, q4d × 3
  T/C, Day 24 (%): 36%
  Δ Tumor volume, Day 24: 395 ± 84 mm^3
HCT116 tumor xenograft; 3.5 mg/kg, q4d × 3
  T/C, Day 17 (%): 5%
  T/C, Day 24 (%): 15%
  Δ Tumor volume, Day 17: 39 ± 4 mm^3
  Δ Tumor volume, Day 24: 165 ± 60 mm^3
HCT116 tumor xenograft; 3.5 mg/kg, q4d × 3, D7
  Max. % Regression (Day): 13%
HCT116 tumor xenograft; 3.5 mg/kg, q4d × 3, D11
  Max. % Regression (Day): 10%
HCT116 tumor xenograft; 7.5 mg/kg, q4d × 3
  Δ Tumor volume, Day 17: −177 ± 55 mm^3
  Δ Tumor volume, Day 24: −145 ± 25 mm^3
HCT116 tumor xenograft; 7.5 mg/kg, q4d × 3, D17
  Max. % Regression (Day): 65%
HCT116 tumor xenograft; 7.5 mg/kg, q4d × 3, D21
  Max. % Regression (Day): 65%
HCT116 tumor xenograft; 15 mg/kg, q4d × 3 (only first two doses given)
  Δ Tumor volume, Day 17: −205 ± 24 mm^3
HCT116 tumor xenograft; 15 mg/kg, q4d × 3 (only first two doses given), D20
  Max. % Regression (Day): 73%
HCT15 tumor xenograft; 7.5 mg/kg, q4d × 3, i.v
  Δ Tumor volume, Day 15: 647 ± 164 mm^3
  ΔT/ΔC, Day 15 (%): 87%
HCT15 tumor xenograft; 15 mg/kg, q4d × 3, i.v.
  Δ Tumor volume, Day 15: 491 ± 109 mm^3
  ΔT/ΔC, Day 15 (%): 67%
[1]; 7.5 mg/kg, q4d × 3, i.v
  Survival (alive/total): 9/9
[1]; 7.5 mg/kg, q4d × 3, i.v, D8
  Max. Δ body weight (Day): 0.6 ± 0.2 g
  Max. Δ body weight (Day) (%): 2.6 ± 1.0%
[1]; 15 mg/kg, q4d × 3, i.v.
  Survival (alive/total): 9/9
[1]; 15 mg/kg, q4d × 3, i.v, D10
  Max. Δ body weight (Day): -1.2 ± 0.4 g
[2]; 15 mg/kg, q4d × 3, i.v., (body weight loss)
  Survival (alive/total): 7/9 (body
[2]; 15 mg/kg, q4d × 3, i.v., D3
  % Max. Δ body weight, (Day): −5.6 ± 1.1%
  Max Δ body weight (g) (Day): -1.4 ± 0.3 g
[2]; Study 2, 1.8 mg/kg, Q4d × 3, i.v
  Survival (alive/total): 9/9
[2]; [4]
  % Max. Δ body weight, (Day): 2.0 ± 1.0, %
  Max. Δ body weight (g) (Day): 0.5 ± 0.4, g
[2]; Study 2, 3.5 mg/kg, Q4d × 3, i.v
  Survival (alive/total): 9/9
[2]; [5]
  % Max. Δ body weight, (Day): 0.7 ± 0.3, %
  Max. Δ body weight (g) (Day): 0.2 ± 0.3, g
[2]; Study 2, 7.5 mg/kg, Q4d × 3, i.v
  Survival (alive/total): 9/9
[2]; [6]
  % Max. Δ body weight, (Day): −1.4 ± 1.3, %
  Max. Δ body weight (g) (Day): −0.4 ± 0.8, g
[3]
  Survival (alive/total): 9/9
[3]; D10
  Max. Δ body weight (Day): -0.96 ± 0.31 g
  Max. Δ body weight (Day) (%): −4.8 ± 1.93%

Reference: patent publication US8252832B2, “Kinesin inhibitors as cancer therapeutics” (Novartis AG, priority 2007, dated 2012)
